The values below come from patent US12723063B2, “GIPR-agonist compounds” (Eli Lilly and Company, priority 2019, dated 2026).

Usually EC50 stands for the concentration giving half of the maximal effect.

The target of experiment [1] is T1, human GLP-1 receptor (GLP-1R) (Homo sapiens, UniProt P43220).
T1 construct: expressed in transfected cells; host or cells: HEK293
Put plainly: cAMP functional assay (HTRF) in HEK293 cells in presence of 0.1% casein. Type of experiment: cell-based. To be noted: HEK293 cells expressing human GLP-1R, geometric mean, read-out: hGLP1R cAMP Rel EC50 nM (SEM, n). On the technique in general: In TR-FRET formats the signal depends on donor and acceptor labels being close together.

Experiment [2] has as its target T2, human glucose-dependent insulinotropic peptide receptor (GIPR) (Homo sapiens, UniProt P48546).
T2 construct: expressed in transfected cells; host or cells: HEK293
T2 sequence (P48546 22-466): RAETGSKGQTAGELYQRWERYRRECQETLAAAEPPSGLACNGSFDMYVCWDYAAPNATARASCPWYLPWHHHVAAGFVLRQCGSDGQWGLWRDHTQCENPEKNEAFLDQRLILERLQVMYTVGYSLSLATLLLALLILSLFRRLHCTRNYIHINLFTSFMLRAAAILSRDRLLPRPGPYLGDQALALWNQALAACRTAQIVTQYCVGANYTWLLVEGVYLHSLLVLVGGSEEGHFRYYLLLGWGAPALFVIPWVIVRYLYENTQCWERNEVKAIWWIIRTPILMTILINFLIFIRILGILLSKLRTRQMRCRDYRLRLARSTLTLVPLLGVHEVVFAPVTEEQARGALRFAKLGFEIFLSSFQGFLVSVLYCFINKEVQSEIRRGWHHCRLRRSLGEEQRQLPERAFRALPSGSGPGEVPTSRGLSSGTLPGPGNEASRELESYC
Described as above. Type of experiment: cell-based. As to conditions: HEK293 cells expressing human GIPR, geometric mean, read-out: hGIPR cAMP Rel EC50 nM (SEM, n).

*1 amine or outer side, *2 acyl side, *3 side chain or, on linkers, in order; H or OH if unused. Where a SMILES comes first, the peptide text is derived from it. Side-chain parts run from the residue outwards. [ ]: non-standard residue; d: D form. The star is where a group is joined. C20 diacid = O=C(O)CCCCCCCCCCCCCCCCCCC(=O)*; γGlu = O=C(O)[C@H](CCC(=O)[*:2])N[*:1]; αMeF = C[C@](N)(Cc1ccccc1)C(=O)O; 4Pal = N[C@@H](Cc1ccncc1)C(=O)O; αMeL = CC(C)C[C@](C)(N)C(=O)O; AEEA = NCCOCCOCC(=O)O; Aib = CC(C)(N)C(=O)O

T1 sequence (P43220 24-463): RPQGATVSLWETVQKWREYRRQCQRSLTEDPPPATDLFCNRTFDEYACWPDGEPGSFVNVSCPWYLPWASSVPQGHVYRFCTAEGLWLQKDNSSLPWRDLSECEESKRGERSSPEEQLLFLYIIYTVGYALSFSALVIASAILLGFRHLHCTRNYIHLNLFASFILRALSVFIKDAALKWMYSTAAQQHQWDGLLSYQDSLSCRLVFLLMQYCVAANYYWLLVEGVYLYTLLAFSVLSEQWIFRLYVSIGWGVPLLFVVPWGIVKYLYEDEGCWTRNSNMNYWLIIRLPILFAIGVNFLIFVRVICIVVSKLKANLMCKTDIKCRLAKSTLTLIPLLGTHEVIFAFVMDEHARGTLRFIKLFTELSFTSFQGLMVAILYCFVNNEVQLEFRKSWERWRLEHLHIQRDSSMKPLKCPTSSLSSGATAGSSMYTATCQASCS

With `CC[C@H](C)[C@H](NC(=O)[C@H](CO)NC(=O)[C@H](Cc1ccc(O)cc1)NC(=O)[C@H](CC(=O)O)NC(=O)[C@H](CO)NC(=O)[C@@H](NC(=O)[C@](C)(Cc1ccccc1)NC(=O)[C@@H](NC(=O)CNC(=O)[C@H](CCC(=O)O)NC(=O)C(C)(C)NC(=O)[C@@H](N)Cc1ccc(O)cc1)[C@@H](C)O)[C@@H](C)CC)C(=O)N[C@@](C)(CC(C)C)C(=O)N[C@@H](CC(C)C)C(=O)N[C@@H](CC(=O)O)C(=O)N[C@@H](CCCCN)C(=O)N[C@@H](CCCCNC(=O)COCCOCCNC(=O)COCCOCCNC(=O)CC[C@H](NC(=O)CCCCCCCCCCCCCCCCCCC(=O)O)C(=O)O)C(=O)N[C@@H](Cc1c[nH]cn1)C(=O)N[C@@H](CCC(N)=O)C(=O)NC(C)(C)C(=O)N[C@@H](CCC(=O)O)C(=O)N[C@@H](Cc1ccccc1)C(=O)N[C@H](C(=O)N[C@@H](CCC(=O)O)C(=O)N[C@@H](Cc1ccncc1)C(=O)N[C@@H](CC(C)C)C(=O)N[C@@H](CC(C)C)C(=O)N[C@@H](C)C(=O)N[C@@H](CCC(N)=O)C(=O)NCC(=O)N1CCC[C@H]1C(=O)N[C@@H](CO)C(=O)N[C@@H](CO)C(=O)NCC(=O)N[C@@H](C)C(=O)N1CCC[C@H]1C(=O)N1CCC[C@H]1C(=O)N1CCC[C@H]1C(=O)N[C@@H](CO)C(N)=O)C(C)C` [Example 60] (H-Y[Aib]EGT[αMeF]ISDYSI[αMeL]LDKK([AEEA-AEEA-γGlu-C20 diacid])HQ[Aib]EFVE[4Pal]LLAQGPSSGAPPPS-NH2), the EC50 was determined as 71 nM in experiment [1] and 0.0369 nM in experiment [2].
Take `CC[C@H](C)[C@H](NC(=O)[C@H](CO)NC(=O)[C@H](Cc1ccc(O)cc1)NC(=O)[C@H](CC(=O)O)NC(=O)[C@H](CO)NC(=O)[C@@H](NC(=O)[C@](C)(Cc1ccccc1)NC(=O)[C@@H](NC(=O)CNC(=O)[C@H](CCC(=O)O)NC(=O)C(C)(C)NC(=O)[C@@H](N)Cc1ccc(O)cc1)[C@@H](C)O)[C@@H](C)CC)C(=O)N[C@@](C)(CC(C)C)C(=O)N[C@@H](CC(C)C)C(=O)N[C@@H](CC(=O)O)C(=O)N[C@@H](CCCCN)C(=O)N[C@@H](CCCCNC(=O)COCCOCCNC(=O)COCCOCCNC(=O)CC[C@H](NC(=O)CCCCCCCCCCCCCCCCCCC(=O)O)C(=O)O)C(=O)N[C@@H](Cc1c[nH]cn1)C(=O)N[C@@H](CCC(N)=O)C(=O)NC(C)(C)C(=O)N[C@@H](CCC(=O)O)C(=O)N[C@@H](Cc1ccccc1)C(=O)N[C@H](C(=O)N[C@@H](CCC(=O)O)C(=O)N[C@@H](Cc1ccncc1)C(=O)N[C@@H](CC(C)C)C(=O)N[C@@H](CC(C)C)C(=O)N[C@@H](C)C(=O)N[C@H](C(=O)NCC(=O)N1CCC[C@H]1C(=O)N[C@@H](CO)C(=O)N[C@@H](CO)C(=O)NCC(=O)N[C@@H](C)C(=O)N1CCC[C@H]1C(=O)N1CCC[C@H]1C(=O)N1CCC[C@H]1C(=O)N[C@@H](CO)C(N)=O)[C@@H](C)O)C(C)C` [Example 61] (H-Y[Aib]EGT[αMeF]ISDYSI[αMeL]LDKK([AEEA-AEEA-γGlu-C20 diacid])HQ[Aib]EFVE[4Pal]LLATGPSSGAPPPS-NH2): the concentration for a half-maximal effect (EC50) came out at 192 nM in experiment [1] and 0.0167 nM in experiment [2].
For `CC[C@H](C)[C@H](NC(=O)[C@H](CO)NC(=O)[C@H](Cc1ccc(O)cc1)NC(=O)[C@H](CC(=O)O)NC(=O)[C@H](CO)NC(=O)[C@@H](NC(=O)[C@](C)(Cc1ccccc1)NC(=O)[C@@H](NC(=O)CNC(=O)[C@H](CCC(=O)O)NC(=O)C(C)(C)NC(=O)[C@@H](N)Cc1ccc(O)cc1)[C@@H](C)O)[C@@H](C)CC)C(=O)N[C@@](C)(CC(C)C)C(=O)N[C@@H](CC(C)C)C(=O)N[C@@H](CC(=O)O)C(=O)N[C@@H](CCCCN)C(=O)N[C@@H](CCCCNC(=O)COCCOCCNC(=O)COCCOCCNC(=O)CC[C@H](NC(=O)CCCCCCCCCCCCCCCCCCC(=O)O)C(=O)O)C(=O)N[C@@H](Cc1c[nH]cn1)C(=O)N[C@@H](CCC(N)=O)C(=O)NC(C)(C)C(=O)N[C@@H](CCC(=O)O)C(=O)N[C@@H](Cc1ccccc1)C(=O)N[C@H](C(=O)N[C@@H](CCC(=O)O)C(=O)N[C@@H](Cc1ccncc1)C(=O)N[C@@H](CC(C)C)C(=O)N[C@@H](CC(C)C)C(=O)N[C@@H](C)C(=O)N[C@@H](C)C(=O)NCC(=O)N1CCC[C@H]1C(=O)N[C@@H](CO)C(=O)N[C@@H](CO)C(=O)NCC(=O)N[C@@H](C)C(=O)N1CCC[C@H]1C(=O)N1CCC[C@H]1C(=O)N1CCC[C@H]1C(=O)N[C@@H](CO)C(N)=O)C(C)C` [Example 62] (H-Y[Aib]EGT[αMeF]ISDYSI[αMeL]LDKK([AEEA-AEEA-γGlu-C20 diacid])HQ[Aib]EFVE[4Pal]LLAAGPSSGAPPPS-NH2), in that order: 58.2 nM and 0.0116 nM.
The corresponding values for `CC[C@H](C)[C@H](NC(=O)[C@H](Cc1ccccc1)NC(=O)[C@@H](NC(=O)CNC(=O)[C@H](CCC(=O)O)NC(=O)C(C)(C)NC(=O)[C@@H](N)Cc1ccc(O)cc1)[C@@H](C)O)C(=O)N[C@@H](CO)C(=O)N[C@@H](CC(=O)O)C(=O)N[C@@H](Cc1ccc(O)cc1)C(=O)N[C@@H](CO)C(=O)N[C@H](C(=O)N[C@@](C)(CC(C)C)C(=O)N[C@@H](CC(C)C)C(=O)N[C@@H](CC(=O)O)C(=O)N[C@@H](CCCCN)C(=O)N[C@@H](CCCCNC(=O)COCCOCCNC(=O)COCCOCCNC(=O)CC[C@H](NC(=O)CCCCCCCCCCCCCCCCCCC(=O)O)C(=O)O)C(=O)N[C@@H](Cc1c[nH]cn1)C(=O)N[C@@H](CCC(N)=O)C(=O)NC(C)(C)C(=O)N[C@@H](CCC(=O)O)C(=O)N[C@@H](Cc1ccccc1)C(=O)N[C@H](C(=O)N[C@@H](CCC(=O)O)C(=O)N[C@@H](Cc1ccc(O)cc1)C(=O)N[C@@H](CC(C)C)C(=O)N[C@@H](CC(C)C)C(=O)N[C@@H](CCC(=O)O)C(=O)N[C@@H](CCC(N)=O)C(=O)NCC(=O)N1CCC[C@H]1C(=O)N[C@@H](CO)C(=O)N[C@@H](CO)C(=O)NCC(=O)N[C@@H](C)C(=O)N1CCC[C@H]1C(=O)N1CCC[C@H]1C(=O)N1CCC[C@H]1C(=O)N[C@@H](CO)C(N)=O)C(C)C)[C@@H](C)CC` [Example 63] (H-Y[Aib]EGTFISDYSI[αMeL]LDKK([AEEA-AEEA-γGlu-C20 diacid])HQ[Aib]EFVEYLLEQGPSSGAPPPS-NH2) are greater than 5000 nM and 0.0398 nM.
As to `CC[C@H](C)[C@H](NC(=O)[C@H](Cc1ccccc1)NC(=O)[C@@H](NC(=O)CNC(=O)[C@H](CCC(=O)O)NC(=O)C(C)(C)NC(=O)[C@@H](N)Cc1ccc(O)cc1)[C@@H](C)O)C(=O)N[C@@H](CO)C(=O)N[C@@H](CC(=O)O)C(=O)N[C@@H](Cc1ccc(O)cc1)C(=O)N[C@@H](CO)C(=O)N[C@H](C(=O)N[C@@](C)(CC(C)C)C(=O)N[C@@H](CC(C)C)C(=O)N[C@@H](CC(=O)O)C(=O)N[C@@H](CCCCN)C(=O)N[C@@H](CCCCNC(=O)COCCOCCNC(=O)COCCOCCNC(=O)CC[C@H](NC(=O)CCCCCCCCCCCCCCCCCCC(=O)O)C(=O)O)C(=O)N[C@@H](Cc1c[nH]cn1)C(=O)N[C@@H](CCC(N)=O)C(=O)NC(C)(C)C(=O)N[C@@H](CCC(=O)O)C(=O)N[C@@H](Cc1ccccc1)C(=O)N[C@H](C(=O)N[C@@H](CCC(=O)O)C(=O)N[C@@H](Cc1ccc(O)cc1)C(=O)N[C@@H](CC(C)C)C(=O)N[C@@H](CC(C)C)C(=O)N[C@@H](CCC(=O)O)C(=O)N[C@H](C(=O)NCC(=O)N1CCC[C@H]1C(=O)N[C@@H](CO)C(=O)N[C@@H](CO)C(=O)NCC(=O)N[C@@H](C)C(=O)N1CCC[C@H]1C(=O)N1CCC[C@H]1C(=O)N1CCC[C@H]1C(=O)N[C@@H](CO)C(N)=O)[C@@H](C)O)C(C)C)[C@@H](C)CC` [Example 64] (H-Y[Aib]EGTFISDYSI[αMeL]LDKK([AEEA-AEEA-γGlu-C20 diacid])HQ[Aib]EFVEYLLETGPSSGAPPPS-NH2), the EC50 in experiment [1] was greater than 5000 nM; in experiment [2], 0.0448 nM.
For the molecule `CC[C@H](C)[C@H](NC(=O)[C@H](Cc1ccccc1)NC(=O)[C@@H](NC(=O)CNC(=O)[C@H](CCC(=O)O)NC(=O)C(C)(C)NC(=O)[C@@H](N)Cc1ccc(O)cc1)[C@@H](C)O)C(=O)N[C@@H](CO)C(=O)N[C@@H](CC(=O)O)C(=O)N[C@@H](Cc1ccc(O)cc1)C(=O)N[C@@H](CO)C(=O)N[C@H](C(=O)N[C@@](C)(CC(C)C)C(=O)N[C@@H](CC(C)C)C(=O)N[C@@H](CC(=O)O)C(=O)N[C@@H](CCCCN)C(=O)N[C@@H](CCCCNC(=O)COCCOCCNC(=O)COCCOCCNC(=O)CC[C@H](NC(=O)CCCCCCCCCCCCCCCCCCC(=O)O)C(=O)O)C(=O)N[C@@H](Cc1c[nH]cn1)C(=O)N[C@@H](CCC(N)=O)C(=O)NC(C)(C)C(=O)N[C@@H](CCC(=O)O)C(=O)N[C@@H](Cc1ccccc1)C(=O)N[C@H](C(=O)N[C@@H](CCC(=O)O)C(=O)N[C@@H](Cc1ccc(O)cc1)C(=O)N[C@@H](CC(C)C)C(=O)N[C@@H](CC(C)C)C(=O)N[C@@H](CCC(=O)O)C(=O)N[C@@H](C)C(=O)NCC(=O)N1CCC[C@H]1C(=O)N[C@@H](CO)C(=O)N[C@@H](CO)C(=O)NCC(=O)N[C@@H](C)C(=O)N1CCC[C@H]1C(=O)N1CCC[C@H]1C(=O)N1CCC[C@H]1C(=O)N[C@@H](CO)C(N)=O)C(C)C)[C@@H](C)CC` [Example 65] (H-Y[Aib]EGTFISDYSI[αMeL]LDKK([AEEA-AEEA-γGlu-C20 diacid])HQ[Aib]EFVEYLLEAGPSSGAPPPS-NH2), the EC50 was greater than 5000 nM in experiment [1] and 0.0346 nM in experiment [2].
